Reference: patent US6528245B2, “Bone marrow cells as a source of neurons for brain and spinal cord repair” (University of South Florida, priority 1998, dated 2003)

Assays:
human BMSC = experiment: In vitro differentiation of human BMSC; immunocytochemistry and Western blot; type: cell-based; conditions: replated in medium containing the mitogen
Source text: To briefly summarize, BMSC were separated from whole bone marrow of the mouse, calf and humans.
BMSC were isolated from residual bone marrow material (bone chips with adherent stromal cells, fatty tissue and debris) which was retained on the nylon mesh filters routinely used in filtering freshly procured human marrow to be used for bone marrow transplantation. The filtrate contains the bulk of the bone marrow hematopoietic elements that is then processed for human bone marrow replacement. We use the filters that were usually discarded. The filters were back washed five times with PBS. The PBS solution was centrifuged to deposit the heavier bone chips. The supernatant was resuspended in culture medium and plated in tissue culture flasks (as in Example 1). BMSC were separated by their adherence to plastic culture flasks, whereas the smaller hematopoietic stem cells remained suspended in the media and were removed when the culture media was replaced with fresh media. […]
After 7 days, expressions of neuronal markers (Nestin, Neuron Specific Nuclear protein or NeuN and GFAP) and a bone marrow stromal cell marker (fibronectin) were analyzed by Western blot analysis and immunocytochemistry (FIG. 6). […]

MSCs = conditions: 1 μg/ml, alone; cited from earlier work

Compound: EGF: epidermal growth factor, mitogen used at 10 ng/ml (NSDSECPLSHDGYCLHDGVCMYIEALDKYACNCVVGYIGERCQYRDLKWWELR; Epidermal growth factor; UniProt P01133 971-1023, looked up)
- proliferation and differentiation of human bone marrow cells (human BMSC): proliferation of cells, without significant induction of differentiation

Compound: C[C@@H]1[C@H](O)[C@@H](C)/C=C/C=C/C=C/C=C/C=C/C=C/C=C/[C@H](O[C@@H]2O[C@H](C)[C@@H](O)[C@H](N)[C@@H]2O)C[C@@H]2O[C@](O)(C[C@@H](O)C[C@@H](O)[C@H](O)CC[C@@H](O)C[C@@H](O)CC(=O)O[C@H]1C)C[C@H](O)[C@H]2C(=O)O [amphotericin B]
- differentiation of MSCs into myoblasts and myotubes (MSCs): differentiate into myoblasts and myotubes
